Read-outs that look alike come from different tables or passages of the source. Each block holds one molecule with its values, some of them ahead of it.
How the values were obtained:
[1] = test system: PBC patients with pruritus; conditions: Phase 2a; cited from earlier work
PBC patients = conditions: 12-month trial, cited from earlier work
adult subjects with PBC [2] = test: Example 2: Low-dose trial in PBC (NCT02955602), pruritus by VAS; assay type: in vivo, human; conditions: for baseline median VAS: subjects with VAS>0 at baseline; for median change in VAS: week 26
Text: (§1) The trial subjects were adult, male or female, with a diagnosis of PBC by at least two of the following three criteria: (a) a history of alkaline phosphatase (ALP) above the upper limit of normal (ULN) for at least six months, (b) positive anti-mitochondrial antibody titers >1/40 on immunofluorescence or M2 positive by enzyme linked immunosorbent assay or positive PBC-specific antinuclear antibodies, and (c) documented liver biopsy result consistent with PBC, on a stable and recommended dose of UDCA for the past twelve months, and ALP≥1.67×ULN. Exclusion criteria included AST or ALT≥3×ULN, total bilirubin (TBIL)≥2×ULN, autoimmune hepatitis or a history of chronic viral hepatitis, PSC, the current use of fibrates or simvastatin, the use of colchicine, methotrexate, azathioprine, or systemic steroids in the previous two months, the use of an experimental treatment for PBC, and the use of an experimental or unapproved immunosuppressant. […] Pruritus was assessed using VAS, 5-D itch, and PBC-40. During the study, three cases of asymptomatic increases in transaminases were observed (two in the 200 mg and one in the 50 mg groups): all were reversible on cessation of treatment and were not accompanied by elevation of total bilirubin. Since the study had already shown a clear efficacy signal, the study was discontinued.
At 12 weeks, the results of pruritus assessment by VAS (0-100 scale) were as follows:
37 subjects with VAS>0 at baseline were analysed in the interim analysis at 26 weeks: 18 subjects in the 5/10 mg group and 19 in the 10 mg group. Baseline median VAS were 15 (range 1-68) and 50 (range 5-90) in the 5/10 mg and 10 mg groups, respectively. At week 26, median changes in VAS were −50% and −55% in the 5/10 mg and 10 mg groups, respectively.

adult subjects with PBC [3] = test: Example 1: High dose trial in PBC (NCT02609048); assay type: in vivo, human; conditions: for cases of asymptomatic increases in transaminases: reversible on cessation, no elevation of total bilirubin
Text: as §1

[4] = test system: adult subjects with PSC, PFIC, or AS; test: Example 3: treatment of subjects with hepatobiliary disease associated with pruritus; assay type: in vivo, human; conditions: 1, 2, 5, and 10 mg/day oral
Experimental: Subjects are permitted their usual other medications, including UDCA. […] At each visit, the subjects are assessed for cholestatic symptoms and biomarkers, and assessed for cholestatic pruritus. The subjects also maintain health diaries, which are reviewed at each visit.

[5] = test system: patients with cholestatic pruritus; conditions: several studies; cited from earlier work
[6] = test system: patients with cholestatic pruritus; conditions: more recent study; cited from earlier work
[7] = test system: patients with cholestatic pruritus; conditions: two studies; cited from earlier work

SMILES: CCCC[C@]1(CC)CS(=O)(=O)c2cc(CNC(CC(=O)O)CC(=O)O)c(OC)cc2[C@@H](c2ccccc2)N1 [GSK2330672]
diarrhea (most common side effect), subjects [1]: 33%
reductions in itch scores (1-10 numerical rating scale, PBC-40 itch domain score, 5-D itch scale) vs placebo [1]: significantly greater reductions in itch scores

SMILES: CC[C@H]1[C@@H](O)[C@@H]2[C@H](CC[C@]3(C)[C@@H]([C@H](C)CCC(=O)O)CC[C@@H]23)[C@@]2(C)CC[C@@H](O)C[C@@H]12 [OCALIVA, 6α-ethylchenodeoxycholic acid]
severe pruritus, patients (PBC patients; 10 mg arm): 23%
severe pruritus, patients (PBC patients; titration arm): 19%

subjects discontinued for increased pruritus possibly related to PBC (adult subjects with PBC [2]; 10 mg/day, after five days, subject entered with intense pruritus): One
cases of asymptomatic increases in transaminases (adult subjects with PBC [3]; 50 mg/day oral): one
cases of asymptomatic increases in transaminases (adult subjects with PBC [3]; 200 mg/day oral): two
SMILES: CCO[C@H](COc1ccc(C(F)(F)F)cc1)CSc1ccc(OCC(=O)O)c(C)c1 [Seladelpar, [4-({(2R)-2-ethoxy-3-[4-(trifluoromethyl)phenoxy]propyl}sulfanyl)-2-methylphenoxy]acetic acid]
effect on cholestatic pruritus associated with PBC (adult subjects with PBC [2]; 5 mg/day and 10 mg/day, 12 weeks): significantly reduced the cholestatic pruritus
pruritus VAS (0-100 scale), median (adult subjects with PBC [2]; 5 mg/day, Visit 2 (Day 1)): 8
pruritus VAS (0-100 scale), median (adult subjects with PBC [2]; 5 mg/day, Visit 3 (Week 1)): 10
pruritus VAS (0-100 scale), median (adult subjects with PBC [2]; 5 mg/day, Visit 4 (Week 2)): 9
pruritus VAS (0-100 scale), median (adult subjects with PBC [2]; 5 mg/day, Visit 5 (Week 4)): 10
pruritus VAS (0-100 scale), median (adult subjects with PBC [2]; 5 mg/day, Visit 6 (Week 6)): 5
pruritus VAS (0-100 scale), median (adult subjects with PBC [2]; 5 mg/day, Visit 7 (Week 8)): 7
pruritus VAS (0-100 scale), median (adult subjects with PBC [2]; 5 mg/day, Visit 8 (Week 12)): 3
baseline median VAS (adult subjects with PBC [2]; 10 mg group, n=19): 50 (range 5-90)
median change in VAS (adult subjects with PBC [2]; 10 mg group): −55%
pruritus VAS (0-100 scale), median (adult subjects with PBC [2]; 10 mg/day, Visit 2 (Day 1)): 25
pruritus VAS (0-100 scale), median (adult subjects with PBC [2]; 10 mg/day, Visit 3 (Week 1)): 13
pruritus VAS (0-100 scale), median (adult subjects with PBC [2]; 10 mg/day, Visit 4 (Week 2)): 30
pruritus VAS (0-100 scale), median (adult subjects with PBC [2]; 10 mg/day, Visit 5 (Week 4)): 20
pruritus VAS (0-100 scale), median (adult subjects with PBC [2]; 10 mg/day, Visit 6 (Week 6)): 10
pruritus VAS (0-100 scale), median (adult subjects with PBC [2]; 10 mg/day, Visit 7 (Week 8)): 15
pruritus VAS (0-100 scale), median (adult subjects with PBC [2]; 10 mg/day, Visit 8 (Week 12)): 6
baseline median VAS (adult subjects with PBC [2]; 5/10 mg group, n=18): 15 (range 1-68)
median change in VAS (adult subjects with PBC [2]; 5/10 mg group): −50%
discontinuations related to seladelpar (adult subjects with PBC [2]; at 26 weeks): no discontinuations related to seladelpar
serious adverse events due to pruritus (adult subjects with PBC [2]; at 26 weeks): no serious adverse events due to pruritus
pruritus reported as an adverse event (adult subjects with PBC [2]; at 26 weeks, 24/119 subjects): 20%
effect on cholestasis, transaminases, LDL-cholesterol, inflammation (adult subjects with PBC [2]; doses as low as 5 mg/day, at 12 weeks): reversed cholestasis, decreased transaminases, decreased LDL-cholesterol, and reduced inflammation
adverse events of pruritus on treatment (adult subjects with PBC [3]; 50 or 200 mg/day oral): no adverse events of pruritus were reported
anti-cholestatic effect (primary endpoint ALP) (adult subjects with PBC [3]; 50 or 200 mg/day oral, at least two weeks of treatment): a potent anti-cholestatic effect was observed
improvement in disease (decrease in ALP and GGT) [4]: improvement in their disease

SMILES: C=C1CC[C@@]2(O)[C@H]3Cc4ccc(O)c5c4[C@@]2(CCN3CC2CC2)[C@H]1O5 [nalmefene]
reduction of cholestatic pruritus vs control intervention [5]: more likely to reduce cholestatic pruritus than the control intervention

SMILES: C=CCN1CC[C@]23c4c5ccc(O)c4O[C@H]2C(=O)CC[C@@]3(O)[C@H]1C5 [naloxone]
reduction of cholestatic pruritus vs control intervention [5]: more likely to reduce cholestatic pruritus than the control intervention

SMILES: O=C1CC[C@@]2(O)[C@H]3Cc4ccc(O)c5c4[C@@]2(CCN3CC2CC2)[C@H]1O5 [naltrexone]
reduction of cholestatic pruritus vs control intervention [5]: more likely to reduce cholestatic pruritus than the control intervention

SMILES: CO[C@H]1/C=C/O[C@@]2(C)Oc3c(C)c(O)c4c(O)c(c(/C=N/N5CCN(C)CC5)c(O)c4c3C2=O)NC(=O)/C(C)=C\C=C\[C@H](C)[C@H](O)[C@@H](C)[C@@H](O)[C@@H](C)[C@H](OC(C)=O)[C@@H]1C [rifampicin]
incidence of significant hepatitis [6]: 7.3%

SMILES: CN[C@H]1CC[C@@H](c2ccc(Cl)c(Cl)c2)c2ccccc21 [sertraline]
tolerability and reduction of itch intensity [7]: well tolerated and moderately effective

Reference: patent publication US20210283078A1, “Treatment of cholestatic pruritus” (CymaBay Therapeutics, Inc., priority 2017, published 2021)
